Data from patent US20100268174A1, “COMBINATION OF ALCOHOL LOCK AND GENTIAN VIOLET CATHETER” (priority 2007, published 2010).

Columns and labels:
[1] = system: all organisms of interest
Description: Dilutions were prepared in Cationic Adjusted Mueller Hinton Broth (CAMHB). All tests were performed in microtiter plates with a total test volume of 100 μL, including diluted antimicrobial agent and inoculum. Concentrations of antimicrobial agents were prepared at 2× concentration, and 50 μL was added to each well of a microtiter plate, to which 50 μL of inoculum of the test organism was added to give the target test concentration.
Cells were subsequently centrifuged, and resuspended twice in phosphate buffered saline. The population of this bacterial suspension was determined by reading optical density at 670 nm. […] Initial concentrations were verified using the Miles and Misra drop count method. […] Incubation was at 37° C. for 16 to 20 hours.
To determine MBC values, 50 μl was removed from each well showing inhibition of growth (MIC and greater). Solutions from these inhibitory concentrations of antimicrobial agent were diluted in CAMHB to concentrations where they would no longer inhibit the growth of the test organism. Recovery counts were obtained by plating aliquots of the diluted material onto TSA plate containing 5% sheep's blood, and incubating 24 hours at 37° C.

[2] = system: most microorganisms; settings: Sissons et al. 1996; cited from earlier work
[3] = type: physicochemical
Description: One of the surprising findings about the temperature effects is that certain classes of polyurethanes are processable below the degradation temperature and other classes are not.
Compounding Conditions for Stable Gentian Violet:
Barrel Temperatures: • Zone 1-5=170° C. • Zone 6=175° C.,
Compounding Temperature for Degraded Gentian Violet:
Compounding was performed with Sigma Aldrich ACS grade gentian violet, lot 016K3691. HPLC analysis was performed by cutting and measuring 1 cm segments of each formulation (n=3) using the method described in Examples II and III.
The chromatograms show the stable gentian violet followed by the degraded gentian violet, at 588 nm, 253 nm, and 280 nm. The degradation peaks from the 217° C. sample are evident as the new peaks at 253 and 280 nm wavelengths. The chromatogram of the low processing temperature was identical to that of the Gentian Violet raw material.

[4] = Temperature effect (196-219 °C) on degradation of gentian violet compounded in Carbothane resin (HPLC); type: physicochemical; settings: compounded Carbothane resin with 0.5% GV
Description: Gentian violet contents from compounded resin and tube sample were analyzed via HPLC method. HPLC analysis on GV loaded resin or compounded pellets was performed by weighing 0.1-0.3 g, which is roughly equivalent to 10-20 pellets (depending on the weight of the raw material used) of each formulation (n=3) and digesting in THF (5 mL or 7.5 mL) in 50 mL centrifuge tubes. Samples were allowed to sit for 45 minutes, and then vortexed until all of the polymer dissolved. An equal amount of deionized (DI) water was then added (5 or 7.5 mL), and the samples were again vortexed for 5 minutes, and then centrifuged for 10 minutes. A portion of each sample was then added to an HPLC vial and capped prior to HPLC analysis. HPLC analysis was performed on an Agilent 1200 Series LC using an Agilent Eclipse XDB-CN 5μ 4.6×150 mm column with the corresponding guard column. A gradient program was run using two solvent reservoirs: 5 g of gentian violet (Sigma-Aldrich, St. […] Louis, Mo.). 1000 g of Carbothane®-3585A-B20 (Noveon, Cleveland, Ohio) resin was added in to the gentian violet/ethanol solution. The ethanol solvent was evaporated off in a chemical fume hood overnight at ambient conditions. The gentian violet coated pellets were then dried at 50° C. and 30 inches Hg for 24 hrs prior to compounding. […] The melt temperatures from each run are recorded in Table 6. […]

[5] = Temperature effect (high temperatures) on degradation of gentian violet compounded in Carbothane resin (HPLC); type: physicochemical; settings: drop in extractable GV content
Description: Gentian violet contents from compounded resin and tube sample were analyzed via HPLC method. HPLC analysis on GV loaded resin or compounded pellets was performed by weighing 0.1-0.3 g, which is roughly equivalent to 10-20 pellets (depending on the weight of the raw material used) of each formulation (n=3) and digesting in THF (5 mL or 7.5 mL) in 50 mL centrifuge tubes. Samples were allowed to sit for 45 minutes, and then vortexed until all of the polymer dissolved. An equal amount of deionized (DI) water was then added (5 or 7.5 mL), and the samples were again vortexed for 5 minutes, and then centrifuged for 10 minutes. A portion of each sample was then added to an HPLC vial and capped prior to HPLC analysis. HPLC analysis was performed on an Agilent 1200 Series LC using an Agilent Eclipse XDB-CN 5μ 4.6×150 mm column with the corresponding guard column. A gradient program was run using two solvent reservoirs: The sample preparation for loading GV on resin pellets is similar to EXAMPLE V. Gentian violet was purchased from (Sigma-Aldrich, St. Louis, Mo.) and Carbothane®-3585A-B20 (Noveon, Cleveland, Ohio) was used. The heating profile was varied for each run.

SMILES	concentration at which the solution will not inhibit microbial growth [1]	subinhibitory concentration ([1]; for all organisms of interest) [%]	ethanol lock concentration cidal towards most commonly encountered infectious pathogens ([1]; suggested by the Table 1 results)	concentration generally considered bactericidal [2] [%]	concentration that inhibits the growth of most microorganisms [2] [%]	processing temperature at which degradation starts [3]	processing temperature at which extruded gentian violet was found to degrade [3] [°C]	processing temperature that does not degrade gentian violet [3]	processing temperature up to which GV content is essentially unchanged [4] [°C]	onset of degradation (processing temperature) ([4]; worse at 219° C.) [°C]	temperature above which there is significant degradation of the GV [5]
CCO [ethanol]	below 7%	5	above 25%	≥ 40	10						
CN(C)c1ccc(C(=C2C=CC(=[N+](C)C)C=C2)c2ccc(N(C)C)cc2)cc1 [gentian violet]						about 209 °C	217	under 207 °C	≤ 206	209	above 220 °C
